The values below come from publication PMC10447463, “Data-mining unveils structure–property–activity correlation of viral infectivity enhancing self-assembling peptides” (Nature Communications, 2023).

Where two headings read alike, the source gives them in different places.

Data set [1] can be described thus: Turbidity, derived count rate of scattered light. The conditions noted are these: for Count Rate: derived count rate of scattered light (turbidity); for Log10 Count Rate: turbidity, derived count rate of scattered light, data of Figure 2D. The class given is physicochemical.
Data set [2] is classed as physicochemical. Also noted: key to Fibril / Fibril Formation / TEM 2cat / Fibril: 1 = fibrils present; 0 non-fibrillar structures. The settings on record: for Fibril / Fibril Formation: 1 mg/mL, uranyl acetate stain, qualitative.
The format of data set [3] is physicochemical. The conditions noted are these: for ThT Cat. / ThT-Fluorescence (categorical): ThT-active if fluorescence at least twice the control. In outline: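 Fibrils (1 mg/mL solution) were mixed with 50 µM ThT in PBS for 15 min at RT, and fluorescence was read at λex 440/λem 488 nm against a PBS blank, as a triplicate mean ± SD. Zeta potential came from electrophoretic mobility (Smoluchowski) after 1 d aggregation at 1 mg/mL in PBS pH 7.4, diluted into 1 mM KCl.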

The mark [4] stands for this setting: Fig S10 panel D, fibril category by TEM.
Setting [5] is: FigS12 panel A, fibril category by TEM.
Setting [6] is: TEM, 1 = fibrils present, 0 = non-fibrillar.
[7] abbreviates: TEM, 1 = fibrils present, 0 = non-fibrillar structures.
The mark [8] stands for this setting: category: fibrils present or non-fibrillar.
Where [9] appears, read: ThT fluorescence category, 1 if Rel. ThT >2.

With KIKIQINMWQRGD, the “Count Rate” value in data set [1] came out at 2783. Also, in data set [1], the “Log10 Count Rate” value worked out at 3.445. For the same substance, the “TEM 2cat” value in data set [2] (setting [4]) and in data set [2] (setting [5]) was 0 throughout. The Fibril in data set [2] (FigS12 panel B, TEM) was 0; in data set [2] (setting [6]) it was 0; in data set [2] (setting [7]), 0. The “Fibril / Fibril Formation” value in data set [2] (TEM) is 0. Moreover, the “Tht category (> 2 to blank = +)” value in data set [3] (Fig S10 panel D) and in data set [3] (FigS12 panel A) was 0 (ThT-inactive (N-Fold <2)) in each case. Besides, the “ThT Cat,” value in data set [3] (FigS12 panel B) was 0 (ThT-inactive (N-Fold <2)); in data set [3] (ThT category, 1 if Rel. ThT >2), 0 (ThT-inactive (N-Fold <2)). Besides, the “ThT Cat.” value in data set [3] (ThT category, 1 if Rel. ThT >2) was 0 (ThT-inactive (N-Fold <2)). Also, the “ThT Cat. / ThT-Fluorescence (categorical)” value (from here on “ThT Cat. / ThT-Fluorescence”) in data set [3] is 0 (ThT-inactive (N-Fold <2)). Besides, the “Rel. ThT” value in data set [3] (n-fold ThT fluorescence vs control (PBS, 10% DMSO), 4 µL 1 mg/mL fibrils + 20 µL 50 µM ThT, 15 min RT, ex 440 / em 488 nm, triplicate) amounted to 1.5.
For KIKIQINMWWQ, the “Count Rate” value in data set [1] was determined as 3893. Further, in data set [1], the “Log10 Count Rate” value is 3.59. Moreover, the “TEM 2cat” value in data set [2] (setting [4]) and in data set [2] (setting [8]) was 0 throughout. Further, in data set [2] (TEM), the “Fibril / Fibril Formation” value was found to be 0. Moreover, the Fibril in data set [2] (setting [6]) and in data set [2] (setting [7]) was 0 in each case. Besides, in data set [3] (Fig S10 panel D), the “Tht category (> 2 to blank = +)” value is 0 (ThT-inactive (N-Fold <2)). Besides, in data set [3] (ThT category, 1 if Rel. ThT >2), the “ThT Cat,” value was 0 (ThT-inactive (N-Fold <2)). Also, the “ThT Cat.” value in data set [3] (ThT category, 1 if Rel. ThT >2) is 0 (ThT-inactive (N-Fold <2)). Besides, the “ThT Cat. / ThT-Fluorescence” value in data set [3] was 0 (ThT-inactive (N-Fold <2)).
Consider KIKIQINMWWWQ, for which, in data set [1], the “Count Rate” value amounted to 7596.3 and the “Log10 Count Rate” value is 3.8806. Also, the “TEM 2cat” value in data set [2] (setting [4]) is recorded as 0. Further, the “Fibril / Fibril Formation” value in data set [2] (TEM) turned out to be 0. In addition, the Fibril in data set [2] (setting [6]) is listed as 0. This substance also gave a Fibril in data set [2] (setting [7]) of 0. Moreover, the “TEM 2cat” value in data set [2] (setting [8]) is given as 0. The “Tht category (> 2 to blank = +)” value in data set [3] (Fig S10 panel D) is 0 (ThT-inactive (N-Fold <2)). In data set [3] (ThT category, 1 if Rel. ThT >2), the “ThT Cat,” value is 0 (ThT-inactive (N-Fold <2)) and the “ThT Cat.” value is 0 (ThT-inactive (N-Fold <2)). In addition, the “ThT Cat. / ThT-Fluorescence” value in data set [3] was 0 (ThT-inactive (N-Fold <2)).
In the case of KIKIQIRGD, in data set [1], the “Count Rate” value was 114. For the same substance, the “Log10 Count Rate” value in data set [1] is 2.057. Further, the “TEM 2cat” value in data set [2] (setting [4]) and in data set [2] (setting [5]) was 1 throughout. Further, the Fibril in data set [2] (FigS12 panel B, TEM) is listed as 1; in data set [2] (setting [6]), 1; in data set [2] (setting [7]), 1. The “Fibril / Fibril Formation” value in data set [2] (TEM) came out at 1. Moreover, the “Tht category (> 2 to blank = +)” value is 1 (ThT. Cat is 1, if Rel. ThT >2) in data set [3] (Fig S10 panel D) and 1 (ThT. Cat is 1, if Rel. ThT >2) in data set [3] (FigS12 panel A). Also, the “ThT Cat,” value was 1 (ThT. Cat is 1, if Rel. ThT >2) in data set [3] (FigS12 panel B) and 1 (ThT. Cat is 1, if Rel. ThT >2) in data set [3] (ThT category, 1 if Rel. ThT >2). In addition, the “ThT Cat.” value in data set [3] (setting [9]) is given as 1 (ThT. Cat is 1, if Rel. ThT >2). In addition, the “ThT Cat. / ThT-Fluorescence” value in data set [3] is given as 1 (ThT. Cat is 1, if Rel. ThT >2).
KIKIQIW: in data set [1], the “Count Rate” value came out at 144.9 and the “Log10 Count Rate” value is recorded as 2.161. The “TEM 2cat” value in data set [2] (setting [4]) was determined as 1. Moreover, in data set [2] (TEM), the “Fibril / Fibril Formation” value worked out at 1. This substance had a Fibril in data set [2] (setting [6]) of 1. In addition, in data set [2] (setting [7]), the Fibril was found to be 1. Moreover, the “TEM 2cat” value in data set [2] (setting [8]) stood at 1. The “Tht category (> 2 to blank = +)” value in data set [3] (Fig S10 panel D) is 1 (ThT. Cat is 1, if Rel. ThT >2). For the same substance, in data set [3] (ThT category, 1 if Rel. ThT >2), the “ThT Cat,” value is listed as 1 (ThT. Cat is 1, if Rel. ThT >2) and the “ThT Cat.” value is reported as 1 (ThT. Cat is 1, if Rel. ThT >2). In addition, the “ThT Cat. / ThT-Fluorescence” value in data set [3] is 1 (ThT. Cat is 1, if Rel. ThT >2).
On to KIKQII, for which the “Count Rate” value in data set [1] worked out at 122. Also, in data set [1], the “Log10 Count Rate” value worked out at 2.086. Besides, the “TEM 2cat” value in data set [2] (setting [4]) and in data set [2] (setting [5]) was 0 each time. Further, the Fibril is 0 in data set [2] (Fig S10 panel E); 0 in data set [2] (FigS12 panel B, TEM); 0 in data set [2] (setting [6]); 0 in data set [2] (setting [7]). In addition, the “Fibril / Fibril Formation” value in data set [2] (TEM) worked out at 0. In addition, the “Tht category (> 2 to blank = +)” value in data set [3] (Fig S10 panel D) and in data set [3] (FigS12 panel A) was 0 (ThT-inactive (N-Fold <2)) throughout. Besides, the “ThT Cat.” value in data set [3] (Fig S10 panel E) and in data set [3] (setting [9]) was 0 (ThT-inactive (N-Fold <2)) throughout. Also, the “ThT Cat,” value in data set [3] (FigS12 panel B) is 0 (ThT-inactive (N-Fold <2)); in data set [3] (ThT category, 1 if Rel. ThT >2) it was 0 (ThT-inactive (N-Fold <2)). The “ThT Cat. / ThT-Fluorescence” value in data set [3] was 0 (ThT-inactive (N-Fold <2)).
In the case of KLKLKLQL, the “Count Rate” value in data set [1] is 42.87. The “Log10 Count Rate” value in data set [1] is listed as 1.632. The “TEM 2cat” value in data set [2] (setting [4]) and in data set [2] (setting [5]) was 1 throughout. Also, the Fibril in data set [2] (FigS12 panel B, TEM) turned out to be 1; in data set [2] (setting [6]) it was 1; in data set [2] (setting [7]), 1. Moreover, the “Fibril / Fibril Formation” value in data set [2] (TEM) came to 1. The “Tht category (> 2 to blank = +)” value in data set [3] (Fig S10 panel D) and in data set [3] (FigS12 panel A) was 0 (ThT-inactive (N-Fold <2)) each time. For the same substance, the “ThT Cat,” value is 0 (ThT-inactive (N-Fold <2)) in data set [3] (FigS12 panel B) and 0 (ThT-inactive (N-Fold <2)) in data set [3] (ThT category, 1 if Rel. ThT >2). Further, the “ThT Cat.” value in data set [3] (setting [9]) is 0 (ThT-inactive (N-Fold <2)). The “ThT Cat. / ThT-Fluorescence” value in data set [3] was 0 (ThT-inactive (N-Fold <2)).
As to KLKLQLL, in data set [1], the “Count Rate” value turned out to be 72.67. Further, in data set [1], the “Log10 Count Rate” value is listed as 1.861. In addition, the “TEM 2cat” value in data set [2] (setting [4]) and in data set [2] (setting [5]) was 1 in each case. In addition, the Fibril worked out at 1 in data set [2] (FigS12 panel B, TEM); 1 in data set [2] (setting [6]); 1 in data set [2] (setting [7]). Also, the “Fibril / Fibril Formation” value in data set [2] (TEM) is 1. Also, the “Tht category (> 2 to blank = +)” value in data set [3] (Fig S10 panel D) and in data set [3] (FigS12 panel A) was 0 (ThT-inactive (N-Fold <2)) throughout. The “ThT Cat,” value in data set [3] (FigS12 panel B) was 0 (ThT-inactive (N-Fold <2)); in data set [3] (ThT category, 1 if Rel. ThT >2), 0 (ThT-inactive (N-Fold <2)). The “ThT Cat.” value in data set [3] (setting [9]) is 0 (ThT-inactive (N-Fold <2)). Besides, the “ThT Cat. / ThT-Fluorescence” value in data set [3] was 0 (ThT-inactive (N-Fold <2)).
KVKVQVV: the “Count Rate” value in data set [1] was found to be 27.73. For the same substance, in data set [1], the “Log10 Count Rate” value is on record as 1.443. Besides, the “TEM 2cat” value in data set [2] (setting [4]) and in data set [2] (setting [5]) was 0 in each case. In addition, the Fibril in data set [2] (FigS12 panel B, TEM) was determined as 0; in data set [2] (setting [6]), 0; in data set [2] (setting [7]), 0. The “Fibril / Fibril Formation” value in data set [2] (TEM) amounted to 0. Also, the “Tht category (> 2 to blank = +)” value in data set [3] (Fig S10 panel D) and in data set [3] (FigS12 panel A) was 0 (ThT-inactive (N-Fold <2)) throughout. Further, the “ThT Cat,” value in data set [3] (FigS12 panel B) is 0 (ThT-inactive (N-Fold <2)); in data set [3] (ThT category, 1 if Rel. ThT >2), 0 (ThT-inactive (N-Fold <2)). In addition, the “ThT Cat.” value in data set [3] (setting [9]) was 0 (ThT-inactive (N-Fold <2)). Moreover, the “ThT Cat. / ThT-Fluorescence” value in data set [3] is 0 (ThT-inactive (N-Fold <2)).
Turning to KVKVQVVV, in data set [1], the “Count Rate” value stood at 163.1. Besides, the “Log10 Count Rate” value in data set [1] is 2.213. The “TEM 2cat” value in data set [2] (setting [4]) and in data set [2] (setting [5]) was 1 in each case. Also, the Fibril in data set [2] (FigS12 panel B, TEM) is recorded as 1; in data set [2] (setting [6]) it was 1; in data set [2] (setting [7]), 1. The “Fibril / Fibril Formation” value in data set [2] (TEM) was 1. The “Tht category (> 2 to blank = +)” value in data set [3] (Fig S10 panel D) and in data set [3] (FigS12 panel A) was 0 (ThT-inactive (N-Fold <2)) each time. Further, the “ThT Cat,” value in data set [3] (FigS12 panel B) was 0 (ThT-inactive (N-Fold <2)); in data set [3] (ThT category, 1 if Rel. ThT >2), 0 (ThT-inactive (N-Fold <2)). Moreover, the “ThT Cat.” value in data set [3] (setting [9]) is 0 (ThT-inactive (N-Fold <2)). For the same substance, the “ThT Cat. / ThT-Fluorescence” value in data set [3] is 0 (ThT-inactive (N-Fold <2)).
